Results from patent US20240327382A1 (ALMAC DISCOVERY LIMITED, priority 2021, published 2024).

Biological target: T1, Full-length USP19 (Homo sapiens, UniProt O94966)
T1 construct: Full-length USP19 was purchased from Boston Biochem (E-576); purchased Boston Biochem E-576
T1 sequence (O94966 1-1318): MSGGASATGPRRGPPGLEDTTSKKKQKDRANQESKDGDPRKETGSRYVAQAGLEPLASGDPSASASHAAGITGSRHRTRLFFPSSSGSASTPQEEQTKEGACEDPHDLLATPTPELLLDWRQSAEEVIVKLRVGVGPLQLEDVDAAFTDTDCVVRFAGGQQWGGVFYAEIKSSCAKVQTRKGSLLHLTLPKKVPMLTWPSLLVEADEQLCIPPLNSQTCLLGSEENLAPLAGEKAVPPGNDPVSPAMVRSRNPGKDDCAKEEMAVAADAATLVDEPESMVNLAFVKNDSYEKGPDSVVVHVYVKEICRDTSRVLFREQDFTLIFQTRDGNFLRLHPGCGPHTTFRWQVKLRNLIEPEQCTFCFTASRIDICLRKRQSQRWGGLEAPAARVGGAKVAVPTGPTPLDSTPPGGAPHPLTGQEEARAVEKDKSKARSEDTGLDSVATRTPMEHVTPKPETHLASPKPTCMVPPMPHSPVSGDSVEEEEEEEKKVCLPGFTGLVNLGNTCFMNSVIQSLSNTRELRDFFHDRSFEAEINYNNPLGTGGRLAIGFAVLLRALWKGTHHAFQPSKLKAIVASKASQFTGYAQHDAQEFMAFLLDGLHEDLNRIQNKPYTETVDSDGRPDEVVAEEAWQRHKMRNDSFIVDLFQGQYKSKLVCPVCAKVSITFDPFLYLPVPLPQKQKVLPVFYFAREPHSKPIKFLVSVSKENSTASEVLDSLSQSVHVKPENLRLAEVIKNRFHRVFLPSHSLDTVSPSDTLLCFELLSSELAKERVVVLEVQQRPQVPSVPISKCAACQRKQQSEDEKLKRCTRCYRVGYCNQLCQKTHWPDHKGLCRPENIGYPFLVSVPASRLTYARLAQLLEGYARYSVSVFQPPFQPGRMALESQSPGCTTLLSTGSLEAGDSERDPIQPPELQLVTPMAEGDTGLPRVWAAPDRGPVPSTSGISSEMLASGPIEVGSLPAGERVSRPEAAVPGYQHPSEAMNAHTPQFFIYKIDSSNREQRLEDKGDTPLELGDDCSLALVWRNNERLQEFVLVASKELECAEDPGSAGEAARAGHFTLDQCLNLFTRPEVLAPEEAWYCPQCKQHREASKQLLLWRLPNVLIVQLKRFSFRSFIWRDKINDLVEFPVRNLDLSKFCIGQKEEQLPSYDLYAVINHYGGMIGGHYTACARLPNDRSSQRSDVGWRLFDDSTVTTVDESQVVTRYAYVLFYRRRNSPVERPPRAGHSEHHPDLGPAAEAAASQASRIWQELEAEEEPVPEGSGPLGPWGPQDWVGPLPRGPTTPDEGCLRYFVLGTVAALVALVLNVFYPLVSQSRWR
Assay: USP19 fluorescence polarisation (FP) assay, Ubiquitin-Lys-TAMRA substrate
Type: biochemical
Conditions: average of at least two duplicate experiments
Procedure, shortened: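 Fluorescence polarisation (excitation 530 nm, parallel and perpendicular emission at 575 nm) was recorded every 15 min for 90 min after adding the ubiquitin-Lys-TAMRA isopeptide (500 nM as dispensed). Beforehand, the full-length enzyme (2.5 nM as dispensed) sat 30 min at RT with compound diluted from 200 μM to 2 μM in HEPES pH 7.4 buffer with 150 mM NaCl, 5 mM DTT, 0.05% BSA and 0.05% CHAPS. Values normalised to uninhibited wells gave IC50s by non-linear fitting, each the mean of two or more duplicate runs.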

SMILES	IC50 [nM]
O=C(N1CC[C@@H](Cn2cnc(C(F)F)cc2=O)C2(CCCC2)C1)N1CC[C@@H](NCC(F)F)C[C@H]1c1cc(F)ccc1F [Example 152, 3-(((R)-7-((2S,4R)-4-((2,2-Difluoroethyl)amino)-2-(2,5-difluorophenyl)piperidine-1-carbonyl)-7-azaspiro[4.5]decan-10-yl)methyl)-6-(difluoromethyl)pyrimidin-4(3H)-one]	10 to 100
Cc1cc(=O)n(CC2CCN(C(=O)N3CC[C@@H](N)C[C@H]3c3ccccc3)CC23CCCC3)cn1 (stereo partly drawn) [Example 32, 3-((7-((2S,4R)-4-Amino-2-phenylpiperidine-1-carbonyl)-7-azaspiro[4.5]decan-10-yl)methyl)-6-methylpyrimidin-4(3H)-one]	10 to 100
CC1(C)CN(C(=O)N2CC[C@@H](N)C[C@H]2c2ccccc2)CCC1Cn1ccc(-c2ccccc2)cc1=O (stereo partly drawn) [Example 21, 1-((1-((2S,4R)-4-Amino-2-phenylpiperidine-1-carbonyl)-3,3-dimethylpiperidin-4-yl)methyl)-4-phenylpyridin-2(1H)-one]	< 10
N[C@H]1C[C@@H](c2ccccc2)N(C(=O)N2CC[C@@H](Cn3ccc(-c4ccccc4)cc3=O)C3(CCCC3)C2)C[C@H]1F (racemic) [Example 85, 1-(((R)-7-((2S,4S,5R)-4-Amino-5-fluoro-2-phenylpiperidine-1-carbonyl)-7-azaspiro[4.5]decan-10-yl)methyl)-4-phenylpyridin-2(1H)-one and 1-(((R)-7-((2S,4S,5S)-4-Amino-5-fluoro-2-phenylpiperidine-1-carbonyl)-7-azaspiro[4.5]decan-10-yl)methyl)-4-phenylpyridin-2(1H)-one]	< 10
CN[C@@H]1CCN(C(=O)N2CC[C@@H](Cn3cnc(-c4ccccc4OC)cc3=O)C3(CCCC3)C2)[C@H](c2ccccc2F)C1 [Example 103, 3-(((R)-7-((2S,4R)-2-(2-Fluorophenyl)-4-(methylamino)piperidine-1-carbonyl)-7-azaspiro[4.5]decan-10-yl)methyl)-6-(2-methoxyphenyl)pyrimidin-4(3H)-one]	< 10
CN[C@@H]1CCN(C(=O)N2CCC(Cn3cnc(-c4ccccc4)cc3=O)CC2)[C@H](c2cccc(F)c2)C1 [Example 74, 3-((1-((2S,4R)-2-(3-Fluorophenyl)-4-(methylamino)piperidine-1-carbonyl)piperidin-4-yl)methyl)-6-phenylpyrimidin-4(3H)-one]	< 10
CC1(N[C@@H]2CCN(C(=O)N3CC[C@@H](Cn4cnc(-c5ccccc5)cc4=O)C4(CCCC4)C3)[C@H](c3ccccc3)C2)CC1 [Example 151, 3-(((R)-7-((2S,4R)-4-((1-Methylcyclopropyl)amino)-2-phenylpiperidine-1-carbonyl)-7-azaspiro[4.5]decan-10-yl)methyl)-6-phenylpyrimidin-4(3H)-one]	< 10
O=C(N1CC[C@@H](Cn2ccc(-c3ccccc3)cc2=O)C2(CCCC2)C1)N1CC[C@H](NC2CS(=O)(=O)C2)C[C@H]1c1ccccc1 [Example 51, 1-(((R)-7-((2S,4S)-4-((1,1-Dioxidothietan-3-yl)amino)-2-phenylpiperidine-1-carbonyl)-7-azaspiro[4.5]decan-10-yl)methyl)-4-phenylpyridin-2(1H)-one]	100 to 1000
CN[C@@H]1CCN(C(=O)N2CC[C@@H](CN3CCC(c4ccccc4OC)=CC3=O)C3(CCCC3)C2)[C@H](c2ccc(F)cc2F)C1 (racemic) [Example 127, 1-(((R)-7-((2S,4R)-2-(2,4-Difluorophenyl)-4-(methylamino)piperidine-1-carbonyl)-7-azaspiro[4.5]decan-10-yl)methyl)-4-(2-methoxyphenyl)-5,6-dihydropyridin-2(1H)-one and 1-(((S)-7-((2S,4R)-2-(2,4-Difluorophenyl)-4-(methylamino)piperidine-1-carbonyl)-7-azaspiro[4.5]decan-10-yl)methyl)-4-(2-methoxyphenyl)-5,6-dihydropyridin-2(1H)-one]	< 10

Results, then the molecule that gave them:

IC50 [nM]	SMILES
10 to 100	N[C@@H]1CCN(C(=O)N2CCC(CN3Cc4nccn4CC3=O)C3(CCCC3)C2)[C@H](c2ccccc2)C1 (stereo partly drawn) [Example 42, 7-((7-((2S,4R)-4-Amino-2-phenylpiperidine-1-carbonyl)-7-azaspiro[4.5]decan-10-yl)methyl)-7,8-dihydroimidazo[1,2-a]pyrazin-6(5H)-one]
< 10	O=C(N1CC[C@@H](Cn2cnc3ccc(F)cc3c2=O)C2(CCCC2)C1)N1CC[C@@H](NCC(F)F)C[C@H]1c1cc(F)ccc1F [Example 157, 3-(((R)-7-((2S,4R)-4-((2,2-Difluoroethyl)amino)-2-(2,5-difluorophenyl)piperidine-1-carbonyl)-7-azaspiro[4.5]decan-10-yl)methyl)-6-fluoroquinazolin-4(3H)-one]
< 10	Cc1ccccc1-c1cc(=O)n(C[C@@H]2CCN(C(=O)N3CC[C@@H](N)C[C@H]3c3cc(F)ccc3F)CC23CCCC3)cn1 [Example 82, 3-(((R)-7-((2S,4R)-4-Amino-2-(2,5-difluorophenyl)piperidine-1-carbonyl)-7-azaspiro[4.5]decan-10-yl)methyl)-6-(o-tolyl)pyrimidin-4(3H)-one]
10 to 100	O=C(N1CC[C@@H](Cn2cnc(C3CC3)cc2=O)C2(CCCC2)C1)N1CC[C@@H](NCC(F)F)C[C@H]1c1cc(F)ccc1F [Example 182, 6-Cyclopropyl-3-(((R)-7-((2S,4R)-4-((2,2-difluoroethyl)amino)-2-(2,5-difluorophenyl)piperidine-1-carbonyl)-7-azaspiro[4.5]decan-10-yl)methyl)pyrimidin-4(3H)-one]
< 10	N[C@H]1C[C@@H](c2ccccc2)N(C(=O)N2CC[C@@H](Cn3cnc(-c4ccccc4)cc3=O)C3(CCCC3)C2)C1 [Example 70, 3-(((R)-7-((2S,4S)-4-Amino-2-phenylpyrrolidine-1-carbonyl)-7-azaspiro[4.5]decan-10-yl)methyl)-6-phenylpyrimidin-4(3H)-one]
10 to 100	N[C@@H]1CC[C@@H](c2ccccc2)N(C(=O)N2CC[C@@H](Cn3cnc(-c4ccccc4)cc3=O)C3(CCCC3)C2)C1 (racemic) [Example 188, 3-(((R)-7-((2S,5R)-5-Amino-2-phenylpiperidine-1-carbonyl)-7-azaspiro[4.5]decan-10-yl)methyl)-6-phenylpyrimidin-4(3H)-one and 3-(((R)-7-((2R,5S)-5-amino-2-phenylpiperidine-1-carbonyl)-7-azaspiro[4.5]decan-10-yl)methyl)-6-phenylpyrimidin-4(3H)-one]
< 10	CN[C@@H]1CCN(C(=O)N2CC[C@@H](Cn3cnc(-c4ccccc4C)cc3=O)C3(CCCC3)C2)[C@H](c2ccc(F)cc2F)C1 [Example 137, 3-(((R)-7-((2S,4R)-2-(2,4-Difluorophenyl)-4-(methylamino)piperidine-1-carbonyl)-7-azaspiro[4.5]decan-10-yl)methyl)-6-(o-tolyl)pyrimidin-4(3H)-one]
< 10	O=C(O)CN[C@@H]1CCN(C(=O)N2CC[C@@H](Cn3cnc(-c4ccccc4)cc3=O)C3(CCCC3)C2)[C@H](c2ccccc2)C1 [Example 106, Sodium ((2S,4R)-1-((R)-10-((6-Oxo-4-phenylpyrimidin-1(6H)-yl)methyl)-7-azaspiro[4.5]decane-7-carbonyl)-2-phenylpiperidin-4-yl)glycinate]
< 10	CC(C)N[C@@H]1CCN(C(=O)N2CC[C@@H](Cn3cnc4ccc(F)cc4c3=O)C3(CCCC3)C2)[C@H](c2cc(F)ccc2F)C1 [Example 189, 3-(((R)-7-((2S,4R)-2-(2,5-Difluorophenyl)-4-(isopropylamino)piperidine-1-carbonyl)-7-azaspiro[4.5]decan-10-yl)methyl)-6-fluoroquinazolin-4(3H)-one]
